System: severe sepsis CLP model
Details: severe sepsis CLP mice
Experimental: To assess the treating activity of the combination of the purified extract prepared in the Examples with antibiotics on severe sepsis, following experiment was performed by using severe sepsis CLP model according to the modified procedure disclosed in the procedure (Daniel Rittirsch, et al. Immuodesign of Experimental sepsis by cecal ligation and puncture. Nature Protocols, Vol. 4(1), pp 31-36, 2009).
Anesthetic(ketamine hydrochloride, 100 mg/kg, Yuhan Pharm. Co.) was intraperitoneally injected to the mice (ICR female, 23-25 g, 8 weeks-old, www.dhbiolink.com) and sepsis was induced to the mice using by CLP (Cecal ligation and puncture). Cavus abdominis medians was dissected and cecum was exposed to ligate the distal ileocecal valve by silk suture (medical suture thread No. 1 & No. 2, www. lead-care.com), Two-holes were made at the cecum by a thread so as to exude the certain amount of fecal material. The cecum was put into the abdominal cavity together with fecal material and physiological saline solution was subcutaneously injected thereto to induce sepsis.
In particular, the suturing position of the distal ileocecal valve was changed and the number of puncture was more than 2 to increase the amount of fecal material in this experiment in order to inducing severe sepsis CLP model.

[1] = imipenem 25 mg/kg, HS-23 40 mg/kg

SMILES: C[C@@H](O)[C@H]1C(=O)N2C(C(=O)O)=C(SCCN=CN)C[C@H]12 [Imipenem, imipenem]
- survival rate at 1st day after the CLP (imipenem 25 mg/kg every 12 hours for 4 days, HS-23 40 mg/kg i.v.): 83%
- final survival rate at 10th days [1]: 33%
- survival rate at 2nd day after the CLP [1]: 58%
- survival rate at 3rd day after the CLP [1]: 50%
- survival rate at 4th day to 10th day after the CLP [1]: 42%
